Measured values published in ChEMBL document CHEMBL2380282, “CROSS: an efficient workflow for reaction-driven rescaffolding and side-chain optimization using robust chemical reactions and available reagents” (J Med Chem, 2013).

Molecular target: Prothrombin (Homo sapiens, UniProt P00734)
Assay: Inhibition of thrombin (unknown origin)

Row | Ki [nM] | Structure (SMILES)
1 | 10 | COc1ccc(OC)c(S(=O)(=O)NC2CCCCN(CC(=O)NCc3ccc(C(=N)N)cc3)C2=O)c1 (configuration not stated)
2 | 15.8 | N=C(N)c1ccc(CNC(=O)CN2C(=O)C(NS(=O)(=O)c3ccc4c(c3)CCO4)CCc3ccccc32)cc1 (configuration not stated)
